From ChEMBL document CHEMBL4270495, “Oleanane-, ursane-, and quinone methide friedelane-type triterpenoid derivatives: Recent advances in cancer treatment” (Eur J Med Chem, 2017) come the findings set out here.

One test deals with ASPC1. In words: Growth inhibition of human AsPC1 cells incubated for 72 hrs by MTT assay. The class given is functional, cell-based. The following applies: ASPC1, 72 h. In general terms: Formazan colour is commonly taken as a measure of viable cells.
Test [1] concerns HepG2. In words: Cytotoxicity in human HepG2 cells assessed as reduction in cell viability incubated for 72 hrs by CCK8 assay. In kind it is functional, cell-based. The settings on record: HepG2, 72 h.
For test [2], the system named is A549. Briefly: Cytotoxicity in human A549 cells assessed as reduction in cell viability incubated for 72 hrs by CCK8 assay. The class given is functional, cell-based. The following applies: A549, 72 h.
Another test concerns MCF7. Briefly: Cytotoxicity in human MCF7 cells assessed as reduction in cell viability incubated for 72 hrs by CCK8 assay. In kind it is functional, cell-based. The following applies: MCF7, 72 h.
Test [3] deals with HeLa. In words: Cytotoxicity in human HeLa cells assessed as reduction in cell viability incubated for 72 hrs by CCK8 assay. The class given is functional, cell-based.
The next test deals with SGC-7901. Briefly: Cytotoxicity in human SGC7901 cells assessed as reduction in cell viability incubated for 72 hrs by CCK8 assay. In kind it is functional, cell-based. The settings on record: SGC-7901, 72 h.
The test system of another test is PC-3. In words: Cytotoxicity in human PC3 cells assessed as reduction in cell viability incubated for 72 hrs by CCK8 assay. The class given is functional, cell-based. The following applies: PC-3, 72 h.
The subject of test [4] is HT-29. In words: Cytotoxicity in human HT-29 cells assessed as reduction in cell viability incubated for 96 hrs by SRB assay. The class given is functional, cell-based. The following applies: HT-29, 96 h.
For test [5], the system named is A549. In words: Cytotoxicity in human A549 cells assessed as reduction in cell viability incubated for 96 hrs by SRB assay. The settings on record: A549, 96 h. The class given is functional, cell-based. On the technique in general: The SRB assay estimates cell density from bound dye.
The test system of test [6] is HepG2. Briefly: Cytotoxicity in human HepG2 cells assessed as reduction in cell viability incubated for 72 hrs by cell-titer Glo asay. The following applies: HepG2, 72 h. In kind it is functional, cell-based.
Another test concerns Huh-7. In words: Cytotoxicity in human HuH7 cells assessed as reduction in cell viability incubated for 72 hrs by cell-titer Glo asay. The following applies: Huh-7, 72 h. The class given is functional, cell-based.
Another test concerns Hep 3B2. Briefly: Cytotoxicity in human Hep3B cells assessed as reduction in cell viability incubated for 72 hrs by cell-titer Glo asay. In kind it is functional, cell-based.
Another test concerns AGS. Briefly: Antiproliferative activity in human AGS cells incubated for 3 days by MTT assay. The class given is functional, cell-based. The following applies: 72 h.
Test [7] has as its system HepG2. In words: Cytotoxicity in human HepG2 cells assessed as reduction in cell viability incubated for 48 hrs by MTT assay. The class given is functional, cell-based. The following applies: HepG2, 48 h.
In test [8] the test system is HeLa. In words: Cytotoxicity in human HeLa cells assessed as reduction in cell viability incubated for 48 hrs by MTT assay. In kind it is functional, cell-based.
A further test concerns BGC-823. In words: Cytotoxicity in human BGC823 cells assessed as reduction in cell viability incubated for 48 hrs by MTT assay. The class given is functional, cell-based. The following applies: BGC-823, 48 h.
Test [9] relates to HT-29. Briefly: Cytotoxicity in human HT-29 cells assessed as reduction in cell viability incubated for 72 hrs by MTT assay. In kind it is functional, cell-based. The settings on record: HT-29, 72 h.
For test [10], the system named is HepG2. Briefly: Cytotoxicity in human HepG2 cells assessed as reduction in cell viability incubated for 72 hrs by MTT assay. The following applies: HepG2, 72 h. The class given is functional, cell-based.
For the next test, the system named is B16-F10. In words: Cytotoxicity in mouse B16F10 cells assessed as reduction in cell viability incubated for 72 hrs by MTT assay. The settings on record: B16-F10, 72 h. The class given is functional, cell-based.
In test [11] the test system is MDA-MB-231. Briefly: Antiproliferative activity in human MDA-MB-231 cells assessed as reduction in cell viability incubated for 24 to 72 hrs by MTT assay. In kind it is functional, cell-based.
The test system of test [12] is MDA-MB-231. In words: Inhibition of cell invasion in human MDA-MB-231 cells. In kind it is functional.
Test [13] can be described thus: Cytotoxicity in human A375-S2 cells assessed as reduction in cell viability incubated for 48 hrs by MTT assay. In kind it is functional, cell-based. The settings on record: A375-S2, 48 h.
A short description of test [14]: Cytotoxicity in human […] cells assessed as reduction in cell viability incubated for 72 hrs by MTT assay. In kind it is functional, cell-based.

For orientation: IC50 means the concentration that inhibits the measured activity by half. Regarding `COC(=O)[C@]12CCC(C)(C)C[C@H]1C1=CC[C@@H]3[C@@]4(C)C/C(=C/n5ccnc5)C(=O)C(C)(C)[C@@H]4CC[C@@]3(C)[C@]1(C)CC2`, in the test with ASPC1, the IC50 was < 5 µM.

`COC(=O)C(C)NC(=O)[C@]12CC[C@@H](C)[C@H](C)[C@H]1C1=CC[C@@H]3[C@@]4(C)C[C@@H](OC(C)=O)[C@H](OC(C)=O)[C@@](C)(COC(C)=O)[C@@H]4CC[C@@]3(C)[C@]1(C)CC2` (stereo partly specified): the half-maximal inhibitory concentration (IC50) in the test on HepG2 [1] was 0.3 µM; in the test on A549 [2], 3.1 µM; in the test on MCF7, 3.9 µM; in the test with HeLa [3], 5.1 µM; in the test on SGC-7901, 9.2 µM; in the test on PC-3, 10.1 µM.

With `COC(=O)[C@]12CCC(C)(C)C[C@H]1C1=CC[C@@H]3[C@@]4(C)C[C@@H](OS(N)(=O)=O)[C@H](O)C(C)(C)[C@@H]4CC[C@@]3(C)[C@]1(C)CC2`, the IC50 in the test with HT-29 [4] turned out to be 7.5 µM; with A549 [5], 6.4 µM.

For `CC1=C(O)C(=O)C=C2C1=CC=C1[C@@]2(C)CC[C@@]2(C)[C@@H]3C[C@](C)(C(=O)OCc4ccccc4)CC[C@]3(C)CC[C@]12C`, the IC50 in the test on HepG2 [6] worked out at 4.26 µM; with Huh-7, 2.15 µM; with Hep 3B2, 2.77 µM.

In turn, `CC1(C)CC[C@]2(C(=O)O)CC[C@]3(C)C(=CC[C@@H]4[C@@]5(C)CC[C@H](OC(=O)CCc6cn(-c7ccc(Cl)cc7)nn6)C(C)(C)[C@@H]5CC[C@]43C)[C@@H]2C1` came in with an IC50 with AGS of 8.9 µM.

As for `CC1=C(O)C(=O)C=C2C1=CC=C1[C@@]2(C)CC[C@@]2(C)[C@@H]3C[C@](C)(C(=O)NCCc4ccccc4)CC[C@]3(C)CC[C@]12C`, the IC50 came to 3.58 µM with HepG2 [6], 1.04 µM with Huh-7 and 1.06 µM in the test with Hep 3B2.

`CC(=O)O/N=C1\CC[C@]2(C)[C@H]3CC=C4[C@@H]5[C@@H](C)[C@H](C)CC[C@]5(C(=O)Nc5ccccc5C(=O)O)CC[C@@]4(C)[C@]3(C)CC[C@H]2C1(C)C`: the 50% inhibitory concentration (IC50) with HepG2 [7] was found to be 23.7 µM; in the test with HeLa [8] it was 13.8 µM; with BGC-823, 9.2 µM.

For the compound `CCCC(=O)O[C@@H]1C[C@]2(C)[C@H]3CC=C4[C@@H]5CC(C)(C)CC[C@]5(C(=O)NCCCCCCCCCCC(=O)O)CC[C@@]4(C)[C@]3(C)CC[C@H]2C(C)(C)[C@H]1OC(=O)CCC`, the IC50 with HT-29 [9] was determined as 1.37 µM; in the test on HepG2 [10], 27.6 µM; in the test with B16-F10, 5.7 µM.

In the case of `CC1(C)CC[C@]2(C(=O)O)CC[C@]3(C)C(=CC[C@@H]4[C@@]5(C)CC[C@H](OC(=O)NS(=O)(=O)c6ccc(F)cc6)C(C)(C)[C@@H]5CC[C@]43C)[C@@H]2C1`, in the test on MDA-MB-231 [11], the IC50 was found to be 3.4 µM. Further, the “inhibition (INH)” value in the test with MDA-MB-231 [12] was determined as 72.5%.

Consider `CC1(C)CC[C@]2(C(=O)OCc3cn(-c4ccc([N+](=O)[O-])cc4)nn3)CC[C@]3(C)C(=CC[C@@H]4[C@@]5(C)CCC(=O)C(C)(C)[C@@H]5CC[C@]43C)[C@@H]2C1`, for which, in [13], the IC50 is < 3 µM.

With `C[C@H]1[C@H](C)CC[C@]2(C(=O)OCc3ccccc3)CC[C@]3(C)C(=CC[C@@H]4[C@@]5(C)CC[C@H](OC(=O)CCC(=O)O)C(C)(C)[C@@H]5CC[C@]43C)[C@H]12`, the IC50 in test [14] came to 8.1 µM.
